# Test results as given in patent US12662469B2 (SIRONAX LTD, priority 2018, dated 2026).
# Where two headings read alike, the source gives them in different places.
# What was measured:
# [1] = tested on: Cell Necrosis; experiment: Cell necrosis assay / cell viability assay (necrosis inhibitor activity); type: cell-based
# [2] = target: T1, Human RIP1 kinase (Homo sapiens, UniProt Q13546); experiment: Human RIP1 kinase assay; type: biochemical; settings: representative, exemplary data
# T1 sequence (Q13546 1-671): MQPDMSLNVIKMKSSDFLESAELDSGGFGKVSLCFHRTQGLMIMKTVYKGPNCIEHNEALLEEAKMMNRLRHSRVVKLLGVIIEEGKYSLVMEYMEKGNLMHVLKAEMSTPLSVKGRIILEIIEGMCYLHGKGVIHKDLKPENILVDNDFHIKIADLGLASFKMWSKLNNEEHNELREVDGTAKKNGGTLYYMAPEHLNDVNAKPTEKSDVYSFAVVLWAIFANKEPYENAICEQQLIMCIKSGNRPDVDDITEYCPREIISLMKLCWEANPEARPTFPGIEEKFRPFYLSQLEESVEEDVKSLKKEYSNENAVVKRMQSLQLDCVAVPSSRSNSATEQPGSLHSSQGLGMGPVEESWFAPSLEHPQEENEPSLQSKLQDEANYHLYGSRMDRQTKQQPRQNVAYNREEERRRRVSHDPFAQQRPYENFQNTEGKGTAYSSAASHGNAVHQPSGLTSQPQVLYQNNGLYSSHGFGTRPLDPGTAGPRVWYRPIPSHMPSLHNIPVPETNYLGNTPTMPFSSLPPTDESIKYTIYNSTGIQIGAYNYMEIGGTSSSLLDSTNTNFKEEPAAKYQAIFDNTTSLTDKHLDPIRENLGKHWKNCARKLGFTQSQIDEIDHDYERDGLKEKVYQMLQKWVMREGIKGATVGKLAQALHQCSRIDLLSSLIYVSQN
# [3] = necrosis inhibitor activity, EC data for 14-191 extrapolated, read-out: EC50
# [4] = representative, exemplary data, read-out: Cell viability assay, EC50
# [5] = necrosis inhibitor activity, compounds outside 14-191, read-out: EC50
IC50 [2],SMILES,"EC50 [1, 3]","EC50 [1, 4]","EC50 [1, 5]"
< 100 nM,"O=C(N1CC[C@@H](Oc2ccccc2)C1)N1N=CCC1c1ccccc1 (single isomer, unassigned) [Compound 26A]",1 to 1000 nM,1 to 1000 nM,–
> 1000 nM,"O=C(N1CC[C@@H](Oc2ccccc2)C1)N1N=CCC1c1ccccc1 (single isomer, unassigned) [Compound 26B]",1000 to 10000 nM,> 1000 nM,–
~1000 nM,"O=C(N1CCC1)N1N=CCC1c1ccccc1 (stereo not drawn) [Compound 1, azetidin-1-yl(5-phenyl-4,5-dihydro-1H-pyrazol-1-yl)methanone]",–,1 to 10000 nM,1000 to 10000 nM
100 to 1000 nM,"O=C(NC1Cc2ccccc2C1)N1N=CCC1c1ccccc1 (stereo not drawn) [Compound 14, N-(2,3-dihydro-H-inden-2-yl)-5-phenyl-4,5-dihydro-1H-pyrazole-1-carboxamide]",1 to 1000 nM,1 to 1000 nM,–
< 100 nM,"O=C(N1CC(Cc2cccc(F)c2)C1)N1N=CCC1c1ccccc1 (stereo not drawn) [Compound 41, (3-(3-fluorobenzyl)azetidin-1-yl)(5-phenyl-4,5-dihydro-1H-pyrazol-1-yl)methanone]",1 to 1000 nM,1 to 100 nM,–
< 100 nM,"O=C(N1CC(Oc2ccc(F)cc2F)C1)N1N=CCC1c1cc(F)cc(F)c1 (stereo not drawn) [Compound 76, (3-(2,4-difluorophenoxy)azetidin-1-yl)(5-(3,5-difluorophenyl)-4,5-dihydro-1H-pyrazol-1-yl)methanone]",1 to 1000 nM,1 to 100 nM,–
< 100 nM,"O=C(N1CC(Oc2ccc(F)cc2F)C1)N1OCC[C@H]1c1ccccc1 [Compound 80, (S)-(3-(2,4-difluorophenoxy)azetidin-1-yl)(3-phenylisoxazolidin-2-yl)methanone]",1 to 1000 nM,1 to 100 nM,–
< 100 nM,"NC(=O)c1csc(OC2CN(C(=O)N3N=CCC3c3cc(F)cc(F)c3)C2)n1 (stereo not drawn) [Compound 132, 2-((1-(5-(3,5-difluorophenyl)-4,5-dihydro-1H-pyrazole-1-carbonyl)azetidin-3-yl)oxy)thiazole-4-carboxamide]",1 to 1000 nM,1 to 100 nM,–
–,"N#Cc1ccc(O[C@@H]2CCN(C(=O)N3N=CC[C@H]3c3cc(F)cc(F)c3)C2)c(Cl)n1 [Compound 365, 6-chloro-5-(((R)-1-((S)-5-(3,5-difluorophenyl)-4,5-dihydro-1H-pyrazole-1-carbonyl)pyrrolidin-3-yl)oxy)picolinonitrile]",–,–,1 to 1000 nM
–,"CN(C(=O)OC(C)(C)C)c1nccc(O[C@@H]2CCN(C(=O)N3N=CC[C@H]3c3cc(F)cc(F)c3)C2)n1 [Compound 366, tert-butyl (4-(((R)1-((S)-5-(3,5-difluorophenyl)-4,5-dihydro-1H-pyrazole-1-carbonyl)pyrrolidin-3-yl)oxy)pyrimidin-2-yl)(methyl)carbamate]",–,–,1 to 1000 nM
–,"Nc1nccc(O[C@@H]2CCN(C(=O)N3N=CC[C@H]3c3cc(F)cc(F)c3)C2)n1 [Compound 367, ((R)-3-((2-aminopyrimidin-4-yl)oxy)pyrrolidin-1-yl)((S)-5-(3,5-difluorophenyl)-4,5-dihydro-1H-pyrazol-1-yl)methanone]",–,–,1 to 1000 nM
–,"CC(=O)Nc1nccc(O[C@@H]2CCN(C(=O)N3N=CC[C@H]3c3cc(F)cc(F)c3)C2)n1 [Compound 368, N-(4-(((R)-1-((S)-5-(3,5-difluorophenyl)-4,5-dihydro-H-pyrazole-1-carbonyl)pyrrolidin-3-yl)oxy)pyrimidin-2-yl)acetamide]",–,–,1 to 1000 nM
–,"O=C(Nc1nccc(O[C@@H]2CCN(C(=O)N3N=CC[C@H]3c3cc(F)cc(F)c3)C2)n1)C1CC1 [Compound 369, N-(4-(((R)-1-((S)-5-(3,5-difluorophenyl)-4,5-dihydro-1H-pyrazole-1-carbonyl)pyrrolidin-3-yl)oxy)pyrimidin-2-yl)cyclopropanecarboxamide]",–,–,1 to 1000 nM
–,CNc1nccc(O[C@@H]2CCN(C(=O)N3N=CC[C@H]3c3cc(F)cc(F)c3)C2)n1 [Compound 370],–,–,1 to 1000 nM
–,"O=C(N1CC(=Cc2cc(NCCN3CCOCC3)ccc2F)C1)N1N=CC[C@H]1c1cc(F)cc(F)c1 [Compound 371, (S)-(5-(3,5-difluorophenyl)-4,5-dihydro-1H-pyrazol-1-yl)(3-(2-fluoro-5-((2-morpholinoethyl)amino)benzylidene)azetidin-1-yl)methanone]",–,–,1 to 1000 nM
–,"O=C(N1CC(=Cc2cc3[nH]c(=O)oc3cc2F)C1)N1N=CC[C@H]1c1cc(F)cc(F)c1 [Compound 372, (S)-5-((1-(5-(3,5-difluorophenyl)-4,5-dihydro-1H-pyrazole-1-carbonyl)azetidin-3-yildene)methyl)-6-fluorobenzo[d]oxazol-2(3H)-one]",–,–,1 to 1000 nM
–,"N#Cc1cccc([C@@H]2CC=NN2C(=O)N2CC(=Cc3cc4c(cc3F)CC(=O)N4)C2)c1 [Compound 373, (S)-3-(1-(3-((5-fluoro-2-oxoindolin-6-yl)methylene)azetidine-1-carbonyl)-4,5-dihydro-1H-pyrazol-5-yl)benzonitrile]",–,–,1 to 1000 nM
–,"O=C(N1CC(CN2Cc3cn[nH]c3C2)C1)N1N=CC[C@H]1c1cc(F)cc(F)c1 [Compound 375, (S)-(5-(3,5-difluorophenyl)-4,5-dihydro-1H-pyrazol-1-yl)(3-((4,6-dihydropyrrolo[3,4-c]pyrazol-5(1H)-yl)methyl)azetidin-1-yl)methanone]",–,–,1 to 1000 nM
–,"O=C(N1CC(Oc2cc3[nH]nc(F)c3cc2F)C1)N1N=CC[C@H]1c1cc(F)cc(F)c1 [Compound 376, (S)-(3-((3,5-difluoro-1H-indazol-6-yl)oxy)azetidin-1-yl)(5-(3,5-difluorophenyl)-4,5-dihydro-1H-pyrazol-1-yl)methanone]",–,–,1 to 1000 nM
–,"N#Cc1cc(F)cc([C@@H]2CC=NN2C(=O)N2CC(Oc3cc4[nH]nc(F)c4cc3F)C2)c1 [Compound 377, (S)-3-(1-(3-((3,5-difluoro-1H-indazol-6-yl)oxy)azetidine-1-carbonyl)-4,5-dihydro-1H-pyrazol-5-yl)-5-fluorobenzonitrile]",–,–,1 to 1000 nM
–,"O=C(N1CC(Oc2cc3[nH]nc(F)c3cc2F)C1)N1N=CCC1c1cncc(F)c1 (stereo not drawn) [Compound 378, (3-((3,5-difluoro-1H-indazol-6-yl)oxy)azetidin-1-yl)(5-(5-fluoropyridin-3-yl)-4,5-dihydro-1H-pyrazol-1-yl)methanone]",–,–,1 to 1000 nM
–,"O=C(N1CC(Oc2cc3[nH]nc(F)c3cc2F)C1)N1N=CCC1c1ccccc1 (stereo not drawn) [Compound 379, (3-((3,5-difluoro-1H-indazol-6-yl)oxy)azetidin-1-yl)(5-phenyl-4,5-dihydro-1H-pyrazol-1-yl)methanone]",–,–,1 to 1000 nM
–,"N#Cc1cccc(C2CC=NN2C(=O)N2CC(Oc3cc4[nH]nc(F)c4cc3F)C2)c1 (stereo not drawn) [Compound 380, 3-(1-(3-((3,5-difluoro-1H-indazol-6-yl)oxy)azetidine-1-carbonyl)-4,5-dihydro-1H-pyrazol-5-yl)benzonitrile]",–,–,1 to 1000 nM
–,"N#Cc1cncc(C2CC=NN2C(=O)N2CC(Oc3cc4[nH]nc(F)c4cc3F)C2)c1 (stereo not drawn) [Compound 381, 5-(1-(3-((3,5-difluoro-1H-indazol-6-yl)oxy)azetidine-1-carbonyl)-4,5-dihydro-1H-pyrazol-5-yl)nicotinonitrile]",–,–,1 to 1000 nM
–,"NCC#Cc1ccnc(N2CCN(C(=O)N3N=CCC3c3cc(F)cc(F)c3)CC2)n1 (stereo not drawn) [Compound 382, (4-(4-(3-aminoprop-1-yn-1-yl)pyrimidin-2-yl)piperazin-1-yl)(5-(3,5-difluorophenyl)-4,5-dihydro-1H-pyrazol-1-yl)methanone frifluoroacetate]",–,–,1 to 1000 nM
–,"N#Cc1cnc2ccc(N3CCN(C(=O)N4N=CC[C@H]4c4cc(F)cc(F)c4)CC3)nn12 [Compound 383, (S)-6-(4-(5-(3,5-difluorophenyl)-4,5-dihydro-1H-pyrazole-1-carbonyl)piperazin-1-yl)imidazo[1,2-b]pyridazine-3-carbonitrile]",–,–,1 to 1000 nM
–,"Cc1nnc(N2CCN(C(=O)N3N=CC[C@H]3c3cc(F)cc(F)c3)CC2)s1 [Compound 384, (S)-(5-(3,5-difluorophenyl)-4,5-dihydro-1H-pyrazol-1-yl)(4-(5-methyl-1,3,4-thiadiazol-2-yl)piperazin-1-yl)methanone]",–,–,1 to 1000 nM
–,"N#Cc1cnc(N2CCN(C(=O)N3N=CC[C@H]3c3cc(F)cc(F)c3)CC2)nc1 [Compound 385, (S)-2-(4-(5-(3,5-difluorophenyl)-4,5-dihydro-1H-pyrazole-1-carbonyl)piperazin-1-yl)pyrimidine-5-carbonitrile]",–,–,1 to 1000 nM
–,"O=C1Cc2cnc(N3CCN(C(=O)N4N=CC[C@H]4c4cc(F)cc(F)c4)CC3)nc2N1 [Compound 386, (S)-2-(4-(5-(3,5-difluorophenyl)-4,5-dihydro-1H-pyrazole-1-carbonyl)piperazin-1-yl)-5,7-dihydro-6H-pyrrolo[2,3-d]pyrimidin-6-one]",–,–,1 to 1000 nM
